Source: patent US20100092526A1, “NANOEMULSION THERAPEUTIC COMPOSITIONS AND METHODS OF USING THE SAME” (NanoBio Corporation, priority 2008, published 2010)
Values after ≈ are worked out from the molar mass of the structure shown. Where two headings read alike, the source gives them in different places.

Assays:
[1] = test system: Acinetobacter baumannii; assay: MIC/MBC of nanoemulsions against gram-negative isolates (CLSI, alamar blue); assay type: cell-based; conditions: Acinetobacter baumannii (n = 5)
[2] = test system: Proteus mirabilis; assay: as above; assay type: cell-based; conditions: Proteus mirabilis (n = 5)
[3] = test system: Escherichia coli; assay: as above; assay type: cell-based; conditions: Escherichia coli (n = 5)
[4] = test system: Burkholderia cenocepacia; assay: MIC/MBC against CF isolates (CLSI, alamar blue); conditions: Burkholderia cenocepacia
[5] = test system: Burkholderia cepacia; assay: MIC/MBC of nanoemulsions against gram-negative isolates (CLSI, alamar blue); assay type: cell-based; conditions: Burkholderia cepacia (n = 5)
[6] = test system: Klebsiella pneumoniae; assay: as above; assay type: cell-based; conditions: Klebsiella pneumoniae (n = 5)
[7] = test system: Pseudomonas aeruginosa; assay: as above; assay type: cell-based; conditions: Pseudomonas aeruginosa (n = 5)
[8] = test system: Stenotrophomonas maltophilia; assay: MIC/MBC against CF isolates (CLSI, alamar blue); conditions: Stenotrophomonas maltophilia
[9] = test system: Stenotrophomonas maltophilia; assay: MIC/MBC of nanoemulsions against gram-negative isolates (CLSI, alamar blue); assay type: cell-based; conditions: Stenotrophomonas maltophilia (n = 5)
[10] = nanoemulsions in the presence of 5 mM EDTA
[11] = nanoemulsions in the presence of 5 mM EDTA, in µg/mL
[12] = CF Stenotrophomonas isolate NB41
[13] = CF Stenotrophomonas isolate NB42
[14] = CF Stenotrophomonas isolate NB43
[15] = CF Stenotrophomonas isolate NB44
[16] = CF Stenotrophomonas isolate NB45
[17] = CF Stenotrophomonas isolate Steno 1
[18] = CF Stenotrophomonas isolate Steno 2
[19] = CF Stenotrophomonas isolate Steno 3
[20] = CF Stenotrophomonas isolate Steno 4
[21] = CF Stenotrophomonas isolate Steno 6
[22] = CF Stenotrophomonas isolate Steno 8

## C[C@H]1COc2c(N3CCN(C)CC3)c(F)cc3c(=O)c(C(=O)O)cn1c23 [Levofloxacin]
[1]
  % resistant: 20.0%
  % susceptible: 80.0%
[1]; [10]
  MIC50: 0.25 µg/mL
[2]
  % resistant: 0.0%
  % susceptible: 100.0%
[2]; [10]
  MIC50: 0.12 µg/mL
[2]; [11]
  MIC Range: 0.06-2
[3]
  % resistant: 40.0%
  % susceptible: 60.0%
[3]; [10]
  MIC50: 0.03 µg/mL
[4]; CF Burkholderia isolate NB21
  MBC: 2 µg/mL (≈ 5.53 µM)
  MIC: 2 µg/mL (≈ 5.53 µM)
[4]; CF Burkholderia isolate NB22
  MBC: 4 µg/mL (≈ 11.1 µM)
  MIC: 1 µg/mL (≈ 2.77 µM)
[4]; CF Burkholderia isolate NB23
  MBC: > 16 µg/mL
  MIC: 8 µg/mL (≈ 22.1 µM)
[4]; CF Burkholderia isolate NB24
  MBC: 16 µg/mL (≈ 44.3 µM)
  MIC: 8 µg/mL (≈ 22.1 µM)
[4]; CF Burkholderia isolate NB25
  MBC: 8 µg/mL (≈ 22.1 µM)
  MIC: 4 µg/mL (≈ 11.1 µM)
[4]; CF Burkholderia isolate NB26
  MBC: 8 µg/mL (≈ 22.1 µM)
  MIC: 8 µg/mL (≈ 22.1 µM)
[4]; CF Burkholderia isolate NB27
  MBC: 8 µg/mL (≈ 22.1 µM)
  MIC: 4 µg/mL (≈ 11.1 µM)
[4]; CF Burkholderia isolate NB28b
  MBC: 2 µg/mL (≈ 5.53 µM)
  MIC: 1 µg/mL (≈ 2.77 µM)
[4]; CF Burkholderia isolate NB29
  MBC: 4 µg/mL (≈ 11.1 µM)
  MIC: 1 µg/mL (≈ 2.77 µM)
[4]; CF Burkholderia isolate NB30
  MBC: 1 µg/mL (≈ 2.77 µM)
  MIC: 1 µg/mL (≈ 2.77 µM)
[5]
  % resistant: 0.0%
  % susceptible: 100.0%
[5]; [10]
  MIC50: 2 µg/mL
[5]; [11]
  MIC Range: 1-2
[6]
  % resistant: 20.0%
  % susceptible: 80.0%
[6]; [10]
  MIC50: 0.06 µg/mL
[6]; [11]
  MIC Range: 0.06-8
[7]
  % resistant: 0.0%
  % susceptible: 80.0%
[7]; [10]
  MIC50: 1 µg/mL
[7]; [11]
  MIC Range: 0.25-4
[8]
  MBC: 16 µg/mL (≈ 44.3 µM)
  MIC50: 2 µg/mL (≈ 5.53 µM)
  MIC90: 8 µg/mL (≈ 22.1 µM)
[8]; [12]
  MBC: 4 µg/mL (≈ 11.1 µM)
  MIC: 2 µg/mL (≈ 5.53 µM)
[8]; [13]
  MBC: 16 µg/mL (≈ 44.3 µM)
  MIC: 8 µg/mL (≈ 22.1 µM)
[8]; [14]
  MBC: 4 µg/mL (≈ 11.1 µM)
  MIC: 2 µg/mL (≈ 5.53 µM)
[8]; [15]
  MBC: 16 µg/mL (≈ 44.3 µM)
  MIC: 8 µg/mL (≈ 22.1 µM)
[8]; [16]
  MBC: 2 µg/mL (≈ 5.53 µM)
  MIC: 1 µg/mL (≈ 2.77 µM)
[8]; [17]
  MBC: 4 µg/mL (≈ 11.1 µM)
  MIC: 1 µg/mL (≈ 2.77 µM)
[8]; [18]
  MBC: 8 µg/mL (≈ 22.1 µM)
  MIC: 4 µg/mL (≈ 11.1 µM)
[8]; [19]
  MBC: 4 µg/mL (≈ 11.1 µM)
  MIC: 1 µg/mL (≈ 2.77 µM)
[8]; [20]
  MBC: 2 µg/mL (≈ 5.53 µM)
  MIC: 0.5 µg/mL (≈ 1.38 µM)
[8]; [21]
  MBC: 4 µg/mL (≈ 11.1 µM)
  MIC: 2 µg/mL (≈ 5.53 µM)
[8]; [22]
  MBC: 2 µg/mL (≈ 5.53 µM)
  MIC: 2 µg/mL (≈ 5.53 µM)
[8]; read-out: MBC 50, 11 CF Stenotrophomonas isolates
  MBC: 4 µg/mL (≈ 11.1 µM)
[9]
  % resistant: 20.0%
  % susceptible: 60.0%
